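Test compounds were applied to cells in 96-well plates for 48 hours at 5 doses. The concentration for 50% growth inhibition is given as GI50.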 Calls of active or inactive are those of the source. Rule as the data show it: active = GI50 up to about 1.1 µM and inactive = higher. Some results are limits rather than exact numbers.

Test systems include PC-3; MDA-MB-435; K562; NCI/ADR-RES; UACC-62; SK-MEL-28; SK-MEL-2; SNB-19; IGROV-1; ACHN; SK-MEL-5; CCRF-CEM; COLO 205; SF-268; BT-549; HCT-15; UO-31; A549; SN12C; Malme-3M.
Holding throughout (assay): NCI tumour cell line growth inhibition, 48 h

For `OC(c1ccc(C(F)(F)F)cc1)C(F)(F)c1nc2ccccc2o1` (stereo not drawn), the GI50 in the experiment with PC-3 was > 100 µM (inactive); in the experiment with MDA-MB-435 it was > 100 µM (inactive); in the experiment on K562, 56.8 µM (inactive); in the experiment on NCI/ADR-RES, > 100 µM (inactive); with UACC-62, > 100 µM (inactive); with SK-MEL-28, > 100 µM (inactive). Besides, the GI50 in the experiment with SK-MEL-2, in the experiment on SNB-19, in the experiment with IGROV-1, in the experiment on ACHN, in the experiment on SK-MEL-5 and with CCRF-CEM was > 100 µM (inactive) in each case. For the same molecule, the GI50 with COLO 205 is > 100 µM (inactive); with SF-268 it was > 100 µM (inactive); with BT-549, > 100 µM (inactive); in the experiment on HCT-15 it was greater than 100 µM; in the experiment on UO-31 it was > 100 µM (inactive).

As for `Nc1ccnc2c1ncn2[C@H]1C[C@H](O)[C@@H](CO)O1`, the GI50 with PC-3, in the experiment on MDA-MB-435, with NCI/ADR-RES, with UACC-62, in the experiment with A549 and with SK-MEL-28 was > 100 µM (inactive) each time. For the same molecule, the GI50 in the experiment with SK-MEL-2, in the experiment on SNB-19, in the experiment with IGROV-1, in the experiment on ACHN, in the experiment with SK-MEL-5 and with SN12C was > 100 µM (inactive) each time. Also, the GI50 in the experiment with CCRF-CEM was > 100 µM (inactive); in the experiment on COLO 205, > 100 µM (inactive); with SF-268 it was > 100 µM (inactive); in the experiment with BT-549 it was > 100 µM (inactive); in the experiment with HCT-15, greater than 100 µM; in the experiment with UO-31, > 100 µM (inactive).

On to `Oc1ccc(Cl)cc1C1=NC(NCNC2=NC(c3ccccc3)CC(c3cc(Cl)ccc3O)=N2)=NC(c2ccccc2)C1` (stereo not drawn), for which the GI50 in the experiment with PC-3 was > 100 µM (inactive); with MDA-MB-435, 47.9 µM (inactive); in the experiment on K562, 39 µM (inactive); in the experiment on NCI/ADR-RES it was 82.4 µM (inactive); with UACC-62 it was > 100 µM (inactive); in the experiment with A549, > 100 µM (inactive). Moreover, the GI50 was > 100 µM (inactive) in the experiment with SK-MEL-28; > 100 µM (inactive) in the experiment on SK-MEL-2; > 100 µM (inactive) in the experiment on SNB-19; 61.2 µM (inactive) with IGROV-1; 43.6 µM (inactive) in the experiment with ACHN; > 100 µM (inactive) with SK-MEL-5. Further, the GI50 in the experiment with CCRF-CEM was 61 µM (inactive); with COLO 205 it was > 100 µM (inactive); with SF-268 it was 97.9 µM (inactive); in the experiment on BT-549 it was > 100 µM (inactive); with HCT-15 it was 43.4 µM; in the experiment on UO-31 it was 54.2 µM (inactive).

For the molecule `CC(=O)CC1=C(OC(C)C)C2(OCCO2)C1O` (stereo not drawn), the GI50 with PC-3, in the experiment on MDA-MB-435, with UACC-62, in the experiment with A549, in the experiment on SK-MEL-28 and in the experiment with SK-MEL-2 was > 100 µM (inactive) in each case. Besides, the GI50 in the experiment with SNB-19, with IGROV-1, in the experiment with ACHN, with SK-MEL-5, with SN12C and with CCRF-CEM was > 100 µM (inactive) in each case. The GI50 with COLO 205 was > 100 µM (inactive); in the experiment on SF-268 it was > 100 µM (inactive); in the experiment with Malme-3M, > 100 µM (inactive); in the experiment with BT-549, > 100 µM (inactive); in the experiment on HCT-15 it was greater than 100 µM; in the experiment with UO-31, > 100 µM (inactive).

Turning to `c1ccc(/N=C2\c3ccccc3CN2c2ccccn2)nc1`, the GI50 is 70.1 µM (inactive) with PC-3; > 100 µM (inactive) with MDA-MB-435; 65 µM (inactive) with K562; > 100 µM (inactive) in the experiment on UACC-62; > 100 µM (inactive) in the experiment with A549; > 100 µM (inactive) with SK-MEL-28. The GI50 in the experiment with SK-MEL-2, in the experiment with SNB-19, in the experiment with IGROV-1, in the experiment on ACHN, with SK-MEL-5 and in the experiment with SN12C was > 100 µM (inactive) throughout. The GI50 in the experiment on COLO 205 is 58.6 µM (inactive); in the experiment on SF-268, > 100 µM (inactive); in the experiment with BT-549, > 100 µM (inactive); with HCT-15 it was greater than 100 µM; in the experiment on UO-31, > 100 µM (inactive).

For the molecule `O=C(O)c1ccccc1/C=C1\Cc2ccc3c(c2C1=O)CCCC3`, the GI50 is 44.7 µM (inactive) in the experiment with MDA-MB-435; 38 µM (inactive) in the experiment with K562; 32.1 µM (inactive) with NCI/ADR-RES; 21.1 µM (inactive) in the experiment with UACC-62; 42.7 µM (inactive) in the experiment with A549; 39.2 µM (inactive) in the experiment with SK-MEL-28. Besides, the GI50 is 31.3 µM (inactive) in the experiment with SK-MEL-2; 39.4 µM (inactive) in the experiment with SNB-19; 31 µM (inactive) with IGROV-1; 36.5 µM (inactive) in the experiment on ACHN; 15.9 µM (inactive) in the experiment on SK-MEL-5; 26.2 µM (inactive) in the experiment on SN12C. Also, the GI50 in the experiment on CCRF-CEM is 30.4 µM (inactive); with COLO 205, 34.4 µM (inactive); in the experiment with SF-268, 64 µM (inactive); in the experiment on Malme-3M, 41.8 µM (inactive); in the experiment with BT-549, 41 µM (inactive); in the experiment on HCT-15 it was 37.1 µM. The GI50 with UO-31 was 63.5 µM (inactive).

On to `NC1=Nc2ccccc2Sc2nc3ccccc3n21`, for which the GI50 is 9.62 µM (inactive) with PC-3; 9.38 µM (inactive) in the experiment with K562; 27 µM (inactive) in the experiment with NCI/ADR-RES; 23.9 µM (inactive) in the experiment on UACC-62; 26.7 µM (inactive) with A549; 50.1 µM (inactive) in the experiment with SNB-19. Further, the GI50 in the experiment on IGROV-1 is 34.4 µM (inactive); in the experiment on ACHN, 29.7 µM (inactive); in the experiment with SK-MEL-5, 5.4 µM (inactive); in the experiment with SN12C, 48.2 µM (inactive); in the experiment on CCRF-CEM it was 3.33 µM (inactive); in the experiment with COLO 205 it was 7.8 µM (inactive). For the same molecule, the GI50 with SF-268 is 18.4 µM (inactive); with Malme-3M, > 100 µM (inactive); in the experiment on BT-549, 34.3 µM (inactive); with HCT-15, 35.5 µM; in the experiment with UO-31 it was 7.5 µM (inactive).

Turning to `COC1CC(OC2CCC3(C)C(=CCC4C3C(OC(C)=O)C(OC(=O)CC(C)C)C3(C)C(C(C)=O)CCC43O)C2)OC(C)C1OC1CC(OC)C(OC2CC(OC)C(OC3OC(C)C(O)C(OC)C3O)C(C)O2)C(C)O1` (stereo not drawn), the GI50 in the experiment with PC-3 is 18.5 µM (inactive); with MDA-MB-435 it was 25.1 µM (inactive); in the experiment with K562, 36.6 µM (inactive); in the experiment with UACC-62 it was 26.1 µM (inactive); with A549, 37.2 µM (inactive); in the experiment with SK-MEL-28, 36 µM (inactive). Also, the GI50 in the experiment with SK-MEL-2 is 24.7 µM (inactive); with SNB-19 it was 86.5 µM (inactive); with IGROV-1 it was 32.4 µM (inactive); with ACHN, 31.6 µM (inactive); in the experiment on SK-MEL-5 it was 18.7 µM (inactive); with SN12C it was 34.8 µM (inactive). Besides, the GI50 in the experiment on CCRF-CEM is 22.6 µM (inactive); in the experiment with COLO 205, 22 µM (inactive); with SF-268 it was 54.1 µM (inactive); with Malme-3M, 43 µM (inactive); in the experiment with BT-549, 24.5 µM (inactive); with HCT-15, 27.3 µM. Further, the GI50 in the experiment on UO-31 is 26.1 µM (inactive).

In the case of `OC1CC(O)c2c(Cl)sc(Cl)c21` (stereo not drawn), the GI50 is 32 µM (inactive) in the experiment with MDA-MB-435; 62.8 µM (inactive) in the experiment with K562; 43.6 µM (inactive) in the experiment on NCI/ADR-RES; 42.8 µM (inactive) in the experiment on UACC-62; 11.7 µM (inactive) with A549; 29.9 µM (inactive) in the experiment with SK-MEL-28. Also, the GI50 was 19.5 µM (inactive) in the experiment with SK-MEL-2; > 100 µM (inactive) in the experiment on IGROV-1; 33.2 µM (inactive) in the experiment with ACHN; 47 µM (inactive) in the experiment on SK-MEL-5; 46.3 µM (inactive) in the experiment on SN12C; 46.1 µM (inactive) in the experiment with CCRF-CEM. Besides, the GI50 is 18.2 µM (inactive) with COLO 205; > 100 µM (inactive) with SF-268; 36.3 µM (inactive) in the experiment with Malme-3M; 34.6 µM (inactive) in the experiment with BT-549; 60.5 µM in the experiment on HCT-15; 28.2 µM (inactive) in the experiment on UO-31.

In the case of `O=c1[nH]nc(Cn2c3ccc(Br)cc3c3nc4ccccc4nc32)n1C1CCCCC1`, the GI50 was 16.2 µM (inactive) in the experiment on PC-3; 28.1 µM (inactive) in the experiment on MDA-MB-435; 20.7 µM (inactive) with K562; > 100 µM (inactive) in the experiment on NCI/ADR-RES; 21.5 µM (inactive) with UACC-62; 43.6 µM (inactive) in the experiment on A549. In addition, the GI50 is 19.3 µM (inactive) with SK-MEL-28; 60.7 µM (inactive) in the experiment on SK-MEL-2; > 100 µM (inactive) with SNB-19; > 100 µM (inactive) in the experiment on IGROV-1; > 100 µM (inactive) in the experiment with ACHN; 36.9 µM (inactive) with SK-MEL-5. Also, the GI50 in the experiment with SN12C is > 100 µM (inactive); in the experiment with COLO 205, 3.9 µM (inactive); with SF-268 it was 40 µM (inactive); in the experiment on BT-549 it was 42.3 µM (inactive); in the experiment with HCT-15 it was greater than 100 µM; in the experiment on UO-31, > 100 µM (inactive).

Consider `NC(=S)N/N=C\CC(O)(C(F)(F)F)C(F)(F)F`, for which the GI50 in the experiment with PC-3, in the experiment with MDA-MB-435, in the experiment on K562, with NCI/ADR-RES, in the experiment on UACC-62 and in the experiment on A549 was > 10 µM (inactive) each time. The GI50 in the experiment with SK-MEL-28, in the experiment with SK-MEL-2, in the experiment on SNB-19, in the experiment on IGROV-1, with ACHN and with SK-MEL-5 was > 10 µM (inactive) each time. Besides, the GI50 was > 10 µM (inactive) with SN12C; > 10 µM (inactive) in the experiment on CCRF-CEM; > 10 µM (inactive) in the experiment with COLO 205; > 10 µM (inactive) in the experiment on SF-268; > 10 µM (inactive) in the experiment on Malme-3M; greater than 10 µM in the experiment on HCT-15. The GI50 in the experiment with UO-31 was > 10 µM (inactive).

(Values after ChEMBL document CHEMBL1201862, “PubChem BioAssay data set” (2004).)
